Experimental data from US5945404A, “21-Substituted steroid compound” (priority 1993, dated 1999).

Legend:
[1] = system: granuloma; assay: Inhibitory Effects on Granuloma Growth (Paper Disk Method); type: in vivo, male Sprague-Dawley rats; details: rat, paper disk, ointment 0.1%, 50 mg once a day, 7 days
Procedure: (§1) Ointment to be tested was prepared usign white soft paraffin as the base and containing dexamethasone at 0.1% concentration.
Groups of 5 male Sprague-Dawley rats each weighing 150-170 g were used. Under ether anesthesia, the dorsum of animals was closely clipped, and medianly incised. After each one pre-weighed paper disk (8-mm diameter, 1-mm thick, weighing about 30 mg; Toyo-Roshi filter paper) was inserted subcutaneously into both sides of the dorsal incision, the incision was sutured. In order to prevent bacterial infection, penicillin G potassium salt (2,000 units) per rat was intramascularly injected after the surgery. Base or ointment to be tested (50 mg each) was rubbed carefully into the skin over the paper disk inserted site, for 30 seconds once a day for the duration of 7 days. Rats were slipped plastic cangs on to prevent them from licking the drug applied sites. On the 8th day of the test, rats were sacrificed under ether anesthesia, and granulomas were carefully excised. Granulomas were dried at 40° C. for 24 h, and their dry weights were recorded.
Inhibitory effects of dexamethasone derivatives on the weight increase of granuloma of experimental animals as compared with those of control animals are shown as per cent of inhibition ov er the control in Table 1. Figures wihth asterisks in the table indicate signfiicant difference. The same will be applied to the following other tables.

[2] = system: croton oil-induced ear edema; assay: Inhibitory Effects on Croton oil-induced Ear Lobe Edema; type: in vivo, male ddY mice; details: Table 5, ointment 20 mg, mouse ear lobe
Procedure: as §1
Groups of 10 male ddY mice each weighing about 25 g were used. Ointment to be tested (20 mg) was rubbed in the right-side ear lobe, and, 30 min later, a drop of 4 % croton oil dissolved in either was applied to it. Thirty minute after that treatment, mice were sacrificed. Ear lobes on both sides were punched out in the size of 5-mm diameter, and weighed. Results were expressed by calculating the per cent of weight change of the right edema ear as compared with that of the untreated left ear, and compared with that of the control.

## CC(=O)N[C@H]1C(OCC(=O)[C@@]2(O)[C@H](C)C[C@H]3[C@@H]4CCC5=CC(=O)C=C[C@]5(C)[C@@]4(F)[C@@H](O)C[C@@]32C)O[C@H](CO)[C@H](O)[C@@H]1O (stereo partly shown) [Compound 44', N-acetylgalactosaminyldexamethasone]
[1]; listed as 44'
  Weight of granuloma, per cent of change of the controls: 3.3 ± 4.7 per cent
[2]; listed as 44'
  Percent of inhibition of ear edema: 7.9 ± 7.2%

## CC1OC(OCC(=O)C2(O)C(C)CC3C4CCC5=CC(=O)C=CC5(C)C4(F)C(O)CC32C)C(O)C(O)C1O (stereo not drawn) [Compound 75β, β-fucosyldexamethasone]
[1]
  Weight of granuloma, per cent of change of the controls: -10.0 ± 8.8 per cent
[2]
  Percent of inhibition of ear edema: 22.0 ± 4.7%
